A word on the IC50: it is the point on the concentration scale where inhibition reaches its midpoint.

IC50 and inhibition in vivo data for three compounds are collected here from ChEMBL document CHEMBL5537163, “Discovery of Novel Phenoxyaryl Pyridones as Bromodomain and Extra-Terminal Domain (BET) Inhibitors with High Selectivity for the Second Bromodomain (BD2) to Potentially Treat Acute Myeloid Leukemia” (J Med Chem, 2024).

In experiment [1] the target is T1, Voltage-gated inwardly rectifying potassium channel KCNH2 (Homo sapiens, UniProt Q12809). Briefly: Inhibition of hERG in HEK293 cells at -80 mV holding potential by automated patch clamp electrophysiology. The class given is toxicity, cell-based. (In general: Block of hERG is tested as a sign of cardiac risk.)
In experiment [2] the target is T2, Bromodomain-containing protein 2 (Homo sapiens, UniProt P25440). Briefly: Inhibition of BRD2 BD2 (unknown origin) using biotinylated tetra-acetylated H4 peptide SGRG-K(Ac)-GG-K(Ac)-GLG-K(Ac)-GGA-K(Ac)-RHRK-Biotin as substrate incubated for 1 hr by TR-FRET assay. On the technique in general: In TR-FRET formats the signal depends on donor and acceptor labels being close together.

Experiment [3] concerns the target T2, Bromodomain-containing protein 2. In words: Inhibition of BRD2 BD1 (unknown origin) using biotinylated tetra-acetylated H4 peptide SGRG-K(Ac)-GG-K(Ac)-GLG-K(Ac)-GGA-K(Ac)-RHRK-Biotin as substrate incubated for 1 hr by TR-FRET assay.
The target of experiment [4] is T3, Bromodomain-containing protein 3 (Homo sapiens, UniProt Q15059). In words: Inhibition of BRD3 BD1 (unknown origin) using biotinylated tetra-acetylated H4 peptide SGRG-K(Ac)-GG-K(Ac)-GLG-K(Ac)-GGA-K(Ac)-RHRK-Biotin as substrate incubated for 1 hr by TR-FRET assay.
The target of experiment [5] is T4, Bromodomain testis-specific protein (Homo sapiens, UniProt Q58F21). In words: Inhibition of BRDT BD1 (unknown origin) using biotinylated tetra-acetylated H4 peptide SGRG-K(Ac)-GG-K(Ac)-GLG-K(Ac)-GGA-K(Ac)-RHRK-Biotin as substrate incubated for 1 hr by TR-FRET assay.
Experiment [6] deals with T3, Bromodomain-containing protein 3. Briefly: Inhibition of BRD3 BD2 (unknown origin) using biotinylated tetra-acetylated H4 peptide SGRG-K(Ac)-GG-K(Ac)-GLG-K(Ac)-GGA-K(Ac)-RHRK-Biotin as substrate incubated for 1 hr by TR-FRET assay.
Experiment [7] concerns the target T4, Bromodomain testis-specific protein. Briefly: Inhibition of BRDT BD2 (unknown origin) using biotinylated tetra-acetylated H4 peptide SGRG-K(Ac)-GG-K(Ac)-GLG-K(Ac)-GGA-K(Ac)-RHRK-Biotin as substrate incubated for 1 hr by TR-FRET assay.
Experiment [8] deals with MV4-11. In words: Antitumor activity against human MV4-11 cells xenografted in BALB/c nude mouse assessed as tumor growth inhibition at 37.5 mg/kg, po administered once daily for 21 days and measured every other day relative to control. To be noted: MV4-11, 504 h, time 21 day, read-out: TGI. The format is functional.
The target in experiment [9] is T1, Voltage-gated inwardly rectifying potassium channel KCNH2. In words: Inhibition of hERG expressed in HEK293 cells at -80 mV holding potential by whole-cell patch clamp technique. The class given is toxicity, cell-based.
The test system of a further experiment is MOLM-13. Briefly: Antiproliferative activity against human MOLM-13 cells assessed as inhibition of cell proliferation incubated for 72 hrs by CellTiterGlo luminescence assay. The class given is functional, cell-based. As to conditions: MOLM-13, 72 h. On the technique in general: In ATP-based viability assays light output follows the ATP content of the culture.

For experiment [10], the system named is MV4-11. Briefly: Antiproliferative activity against human MV4-11 cells assessed as inhibition of cell proliferation incubated for 72 hrs by CellTiterGlo luminescence assay. The class given is functional, cell-based. As to conditions: MV4-11, 72 h.

T1 sequence (Q12809 whole entry): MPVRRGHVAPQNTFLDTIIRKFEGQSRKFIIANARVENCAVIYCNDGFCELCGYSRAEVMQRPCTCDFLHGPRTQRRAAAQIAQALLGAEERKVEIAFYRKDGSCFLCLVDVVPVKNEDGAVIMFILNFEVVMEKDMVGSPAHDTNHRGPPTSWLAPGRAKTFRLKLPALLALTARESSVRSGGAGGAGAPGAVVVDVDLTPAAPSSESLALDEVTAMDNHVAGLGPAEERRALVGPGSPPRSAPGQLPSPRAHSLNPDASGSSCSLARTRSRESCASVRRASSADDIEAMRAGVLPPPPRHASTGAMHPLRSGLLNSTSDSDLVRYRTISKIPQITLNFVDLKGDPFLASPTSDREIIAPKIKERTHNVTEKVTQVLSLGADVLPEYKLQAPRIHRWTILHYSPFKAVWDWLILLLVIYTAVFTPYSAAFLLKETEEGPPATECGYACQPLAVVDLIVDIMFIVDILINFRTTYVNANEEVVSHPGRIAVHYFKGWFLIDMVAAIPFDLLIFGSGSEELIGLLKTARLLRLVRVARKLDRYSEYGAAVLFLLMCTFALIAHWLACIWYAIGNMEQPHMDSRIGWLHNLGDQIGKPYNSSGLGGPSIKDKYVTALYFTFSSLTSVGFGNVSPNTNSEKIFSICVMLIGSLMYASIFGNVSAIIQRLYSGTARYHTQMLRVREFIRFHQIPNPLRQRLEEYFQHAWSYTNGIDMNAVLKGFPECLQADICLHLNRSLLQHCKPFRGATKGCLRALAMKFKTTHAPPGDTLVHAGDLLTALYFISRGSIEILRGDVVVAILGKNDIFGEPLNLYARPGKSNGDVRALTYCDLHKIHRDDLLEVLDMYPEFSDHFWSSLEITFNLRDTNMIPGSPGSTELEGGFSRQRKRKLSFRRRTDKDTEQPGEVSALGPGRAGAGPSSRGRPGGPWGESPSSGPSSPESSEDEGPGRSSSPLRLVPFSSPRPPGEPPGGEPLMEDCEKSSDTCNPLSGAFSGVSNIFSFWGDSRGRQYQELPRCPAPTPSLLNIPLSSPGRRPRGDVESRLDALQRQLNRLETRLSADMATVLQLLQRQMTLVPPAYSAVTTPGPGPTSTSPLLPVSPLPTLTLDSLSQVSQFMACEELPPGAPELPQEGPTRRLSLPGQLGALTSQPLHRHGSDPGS
T3 sequence (Q15059 whole entry): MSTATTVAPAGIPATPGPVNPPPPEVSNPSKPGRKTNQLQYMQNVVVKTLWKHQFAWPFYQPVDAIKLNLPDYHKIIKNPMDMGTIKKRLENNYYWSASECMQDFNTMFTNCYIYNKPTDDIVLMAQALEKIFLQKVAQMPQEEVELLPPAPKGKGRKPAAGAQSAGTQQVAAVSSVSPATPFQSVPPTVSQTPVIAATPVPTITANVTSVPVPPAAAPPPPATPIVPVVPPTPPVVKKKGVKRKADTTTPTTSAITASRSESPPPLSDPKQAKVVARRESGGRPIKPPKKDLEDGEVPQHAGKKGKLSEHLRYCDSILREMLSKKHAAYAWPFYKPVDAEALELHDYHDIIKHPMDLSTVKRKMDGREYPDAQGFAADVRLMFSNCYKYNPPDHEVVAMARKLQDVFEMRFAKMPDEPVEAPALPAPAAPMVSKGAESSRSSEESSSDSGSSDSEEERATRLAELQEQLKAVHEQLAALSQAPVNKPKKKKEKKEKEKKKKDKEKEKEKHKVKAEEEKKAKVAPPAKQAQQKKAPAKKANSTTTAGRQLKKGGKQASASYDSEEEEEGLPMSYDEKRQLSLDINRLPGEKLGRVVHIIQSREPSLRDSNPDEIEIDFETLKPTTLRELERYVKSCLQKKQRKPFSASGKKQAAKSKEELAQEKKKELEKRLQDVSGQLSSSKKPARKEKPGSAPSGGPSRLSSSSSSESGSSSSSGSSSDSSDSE
T2 sequence (P25440 whole entry): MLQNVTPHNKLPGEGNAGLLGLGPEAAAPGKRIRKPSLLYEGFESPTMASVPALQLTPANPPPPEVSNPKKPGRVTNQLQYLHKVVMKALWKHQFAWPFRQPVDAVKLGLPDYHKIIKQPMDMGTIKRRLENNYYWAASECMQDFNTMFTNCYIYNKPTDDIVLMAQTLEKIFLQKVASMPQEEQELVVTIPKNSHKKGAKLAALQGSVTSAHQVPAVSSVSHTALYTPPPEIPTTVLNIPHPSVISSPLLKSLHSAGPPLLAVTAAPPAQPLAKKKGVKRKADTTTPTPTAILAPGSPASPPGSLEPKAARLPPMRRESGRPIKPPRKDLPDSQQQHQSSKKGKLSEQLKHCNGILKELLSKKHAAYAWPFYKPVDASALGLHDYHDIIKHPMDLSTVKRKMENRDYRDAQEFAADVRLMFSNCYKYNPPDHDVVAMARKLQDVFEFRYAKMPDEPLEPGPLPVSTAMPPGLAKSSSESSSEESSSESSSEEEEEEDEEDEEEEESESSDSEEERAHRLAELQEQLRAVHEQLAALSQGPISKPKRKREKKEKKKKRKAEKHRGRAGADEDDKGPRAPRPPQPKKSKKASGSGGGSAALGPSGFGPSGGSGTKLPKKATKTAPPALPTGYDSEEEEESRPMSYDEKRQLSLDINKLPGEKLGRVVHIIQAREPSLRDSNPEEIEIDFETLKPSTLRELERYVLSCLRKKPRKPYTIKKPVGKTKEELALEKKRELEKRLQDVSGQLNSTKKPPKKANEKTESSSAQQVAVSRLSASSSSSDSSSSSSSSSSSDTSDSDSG

On to `CCNC(=O)COc1cc(=O)n(C)cc1-c1cc(C(C)(C)O)ccc1Oc1c(C)cccc1C`, for which the IC50 in [1] was over 30000 nM.
Turning to `Cc1cc(F)cc(C)c1Oc1ccc(C(C)(C)O)cc1-c1cn(C)c(=O)cc1NCC(=O)N1CCOCC1`, the 50% inhibitory concentration (IC50) in [2] was 11.1 nM; in [3] it was 13500 nM; in experiment [1] it was over 30000 nM; in [4], 12800 nM; in experiment [5], 4390 nM; in experiment [6], 15.9 nM. The compound also displayed an IC50 in experiment [7] of 9.7 nM.
Consider `CCNC(=O)c1cc2c(-c3cc(C(C)(C)O)ccc3Oc3c(C)cc(F)cc3C)cn(C)c(=O)c2[nH]1` [ABBV-744], for which the inhibition in vivo at 37.5 mg/kg in the experiment with MV4-11 [8] came out at 55%. The IC50 in experiment [1] was 2800 nM; in experiment [9], 3100 nM; in the experiment with MOLM-13 it was 39 nM; in the experiment with MV4-11 [10] it was 15 nM.
